Where two headings read alike, the source gives them in different places.
Key:
[1] = test system: GLT-1; settings: 50 mg/kg daily IP, last 6 days of extinction training; cocaine self-administering rats; nucleus accumbens core, normalized to calnexin; FIG. 1
[2] = test system: GLT-1; settings: cited from earlier work; for expression of GLT-1: SOD1 mouse model of ALS
[3] = test system: amyotrophic lateral sclerosis; settings: 50 mg daily; after 15 months of treatment; cited from earlier work
[4] = Nakagura et al. (2005); cited from earlier work
[5] = test system: GLT-1; settings: Rothstein et al., 2005; Lee et al., 2008; cited from earlier work
[6] = test system: GLT-1; settings: decreased by repeated cocaine administration; cited from earlier work
[7] = test system: cysteine-glutamate exchanger; settings: decreased by repeated cocaine administration; cited from earlier work
[8] = test system: planarian; settings: planarian model; Rawls et al., 2008; cited from earlier work
[9] = rats; Sari et al., 2009; Knackstead et al., 2010; cited from earlier work
[10] = cited from earlier work

C[C@@H](O)[C@H]1C(=O)N[C@@H]1[C@@H](C)C(=O)N1CCN(C)CC1 [MC-100093]
GLT-1 expression [1]: restored GLT-1 expression levels to normal

COc1ccc2c(c1)[nH]c1c(C)nccc12 [Harmine]
expression of GLT-1 [2]: increases GLT-1 expression

Nc1nc2ccc(OC(F)(F)F)cc2s1 [Riluzole]
increase in life expectancy [3]: 2-3 months

CC1CC=NN1C(=O)c1cccnc1 (stereo not shown) [MS-153]
conditioned place preference induced by cocaine [4]: inhibited the conditioned place preference induced by cocaine

CO/N=C(\C(=O)N[C@@H]1C(=O)N2C(C(=O)O)=C(CSc3nc(=O)c(=O)[nH]n3C)CS[C@H]12)c1csc(N)n1 [ceftriaxone]
GLT-1 expression [5]: stimulator of GLT-1 expression | GLT-1 levels [6]: restores | cysteine-glutamate exchanger levels [7]: restores | abstinence withdrawal from cocaine [8]: inhibits abstinence withdrawal from cocaine | relapse to cocaine seeking [9]: prevents relapse to cocaine seeking | expression of GLT-1 [2]: increases the expression of GLT-1 | mean survival time ([2]; SOD1 mouse): increases the mean survival time | free, unbound cerebrospinal fluid/plasma ratio based on Cmax ([10]; Chadwick et al., 1983): 2-13% | free, unbound cerebrospinal fluid/plasma ratio based on AUCs ([10]; Lutsar and Friedland, 2000): 1%

— patent publication US9975879B2, “Beta lactams as modulators of glutamate uptake and methods for use thereof” (Temple University of the Commonwealth System of Higher …, priority 2013, dated 2018)
